Laboratory results published in the NIST ThermoML archive (doi:10.1021/je900757k).

Test: isobaric coefficient of expansion
Settings: Liquid, DSC

c1ccccc1 [benzene]
isobaric coefficient of expansion
Settings | 298.15 K | 308.15 K | 318.15 K | 328.15 K | 338.15 K | 348.15 K
5000 kPa | 0.0012 1/K | 0.00121 1/K | 0.00123 1/K | 0.00126 1/K | 0.00129 1/K | 0.00132 1/K
10000 kPa | 0.00116 1/K | 0.00118 1/K | 0.00119 1/K | 0.00121 1/K | 0.00123 1/K | 0.00125 1/K
15000 kPa | 0.00114 1/K | 0.00115 1/K | 0.00115 1/K | 0.00117 1/K | 0.00118 1/K | 0.0012 1/K
20000 kPa | 0.00111 1/K | 0.00112 1/K | 0.00113 1/K | 0.00113 1/K | 0.00114 1/K | 0.00115 1/K
25000 kPa | 0.00108 1/K | 0.00108 1/K | 0.00109 1/K | 0.0011 1/K | 0.0011 1/K | 0.00111 1/K
30000 kPa | 0.00105 1/K | 0.00106 1/K | 0.00106 1/K | 0.00106 1/K | 0.00107 1/K | 0.00108 1/K
35000 kPa | 0.00103 1/K | 0.00103 1/K | 0.00104 1/K | 0.00104 1/K | 0.00104 1/K | 0.00104 1/K
40000 kPa | 0.00101 1/K | 0.00101 1/K | 0.00101 1/K | 0.00101 1/K | 0.00101 1/K | 0.00102 1/K
45000 kPa | 0.000988 1/K | 0.00099 1/K | 0.000989 1/K | 0.000989 1/K | 0.000985 1/K | 0.000986 1/K
50000 kPa | 0.000971 1/K | 0.000972 1/K | 0.00097 1/K | 0.000966 1/K | 0.000966 1/K | 0.000963 1/K
55000 kPa | 0.000954 1/K | 0.000955 1/K | 0.000951 1/K | 0.000948 1/K | 0.000945 1/K | 0.000941 1/K

CCCCCCCCCC [decane]
isobaric coefficient of expansion
Settings | 278.15 K | 288.15 K | 298.15 K | 308.15 K | 318.15 K | 328.15 K | 338.15 K | 348.15 K
5000 kPa | 0.000969 1/K | 0.000985 1/K | 0.001 1/K | 0.00102 1/K | 0.00103 1/K | 0.00105 1/K | 0.00107 1/K | 0.00108 1/K
10000 kPa | 0.000945 1/K | 0.000958 1/K | 0.000975 1/K | 0.000988 1/K | 0.001 1/K | 0.00101 1/K | 0.00103 1/K | 0.00103 1/K
15000 kPa | 0.000922 1/K | 0.000933 1/K | 0.000949 1/K | 0.000956 1/K | 0.00097 1/K | 0.000977 1/K | 0.000987 1/K | 0.000992 1/K
20000 kPa | 0.000899 1/K | 0.000907 1/K | 0.000918 1/K | 0.000928 1/K | 0.000935 1/K | 0.000942 1/K | 0.00095 1/K | 0.000956 1/K
25000 kPa | 0.000878 1/K | 0.000886 1/K | 0.000896 1/K | 0.000902 1/K | 0.000907 1/K | 0.000915 1/K | 0.000919 1/K | 0.000922 1/K
30000 kPa | 0.000859 1/K | 0.000868 1/K | 0.000871 1/K | 0.000878 1/K | 0.000883 1/K | 0.000885 1/K | 0.000891 1/K | 0.000893 1/K
35000 kPa | 0.000843 1/K | 0.000846 1/K | 0.000849 1/K | 0.000856 1/K | 0.000858 1/K | 0.000862 1/K | 0.000862 1/K | 0.000865 1/K
40000 kPa | 0.000817 1/K | 0.000823 1/K | 0.000829 1/K | 0.000834 1/K | 0.000833 1/K | 0.000833 1/K | 0.000836 1/K | 0.000835 1/K
45000 kPa | 0.000807 1/K | 0.000812 1/K | 0.000812 1/K | 0.000812 1/K | 0.000815 1/K | 0.000815 1/K | 0.000816 1/K | 0.000816 1/K
50000 kPa | 0.000793 1/K | 0.000797 1/K | 0.000794 1/K | 0.000796 1/K | 0.000802 1/K | 0.000797 1/K | 0.000796 1/K | 0.000795 1/K
55000 kPa | 0.000784 1/K | 0.00078 1/K | 0.00078 1/K | 0.000782 1/K | 0.000781 1/K | 0.000781 1/K | 0.000779 1/K | 0.000778 1/K

CCCCCCCCCCCC [dodecane]
isobaric coefficient of expansion
Settings | 278.15 K | 288.15 K | 298.15 K | 308.15 K | 318.15 K | 328.15 K | 338.15 K | 348.15 K
5000 kPa | 0.000913 1/K | 0.000925 1/K | 0.00094 1/K | 0.000953 1/K | 0.000964 1/K | 0.000975 1/K | 0.000989 1/K | 0.000999 1/K
10000 kPa | 0.000896 1/K | 0.000902 1/K | 0.000916 1/K | 0.000924 1/K | 0.000932 1/K | 0.000941 1/K | 0.00095 1/K | 0.000958 1/K
15000 kPa | 0.000874 1/K | 0.000881 1/K | 0.000893 1/K | 0.000899 1/K | 0.000908 1/K | 0.000913 1/K | 0.000918 1/K | 0.000921 1/K
20000 kPa | 0.000854 1/K | 0.00086 1/K | 0.000869 1/K | 0.000874 1/K | 0.000876 1/K | 0.000884 1/K | 0.000888 1/K | 0.000891 1/K
25000 kPa | 0.000838 1/K | 0.000842 1/K | 0.000848 1/K | 0.00085 1/K | 0.000851 1/K | 0.000859 1/K | 0.000863 1/K | 0.000863 1/K
30000 kPa | 0.000821 1/K | 0.000826 1/K | 0.000827 1/K | 0.000831 1/K | 0.000831 1/K | 0.000835 1/K | 0.000838 1/K | 0.000837 1/K
35000 kPa | 0.000805 1/K | 0.000806 1/K | 0.000807 1/K | 0.00081 1/K | 0.000809 1/K | 0.000813 1/K | 0.000815 1/K | 0.000813 1/K
40000 kPa | 0.000786 1/K | 0.00079 1/K | 0.000788 1/K | 0.000792 1/K | 0.000787 1/K | 0.000791 1/K | 0.000788 1/K | 0.00079 1/K
45000 kPa | 0.000772 1/K | 0.000778 1/K | 0.000775 1/K | 0.000773 1/K | 0.000768 1/K | 0.000774 1/K | 0.000773 1/K | 0.00077 1/K
50000 kPa | 0.00076 1/K | 0.000761 1/K | 0.00076 1/K | 0.000755 1/K | 0.000754 1/K | 0.000757 1/K | 0.000754 1/K | 0.000753 1/K
55000 kPa | 0.000751 1/K | 0.000745 1/K | 0.000744 1/K | 0.000745 1/K | 0.000739 1/K | 0.000742 1/K | 0.00074 1/K | 0.000737 1/K
